Laboratory results as given in patent US9637491B2, “Pyrazolo[4,3-D]pyrimidines as kinase inhibitors” (Origenis GmbH, priority 2012, dated 2017).
pIC50: −log10 of the molar value.

Target: T1, SYK kinase (Homo sapiens, UniProt P43405)
T1 construct: purchased Invitrogen, Carlsbad
Assay: SYK assay (OMNIA Kinase Assay, Invitrogen)
Assay type: biochemical
Conditions: SYK Activities; 1 mM ATP, 10 μM Omnia Peptide Substrate Tyr 7, 30° C.
Protocol: In the assay OMNIA® KINASE ASSAY by Invitrogen Corporation (Carlsbad) the effect of invention of a compound on the phosphorylation is determined by measurement of fluorescence intensity of a chelation-enhanced fluorophore called SOX. Upon phosphorylation of the peptide by the kinase of interest, Mg2+ is chelated to form a bridge between the SOX moiety and the phosphate group that is transferred to the specific tyrosine on the peptide. The fluorescence intensity is directly proportional to the amount of peptide phosphorylation.
To the wells of an 384 well small volume plate (Greiner, Frickenhausen) are added (i) the compound under test in 5% DMSO/distilled water (2 μl), (ii) 16 μl of the master mix containing ATP, DTT, Kinase Reaction Buffer, Omina Peptide Substrate Tyr 7 resulting in a final concentration of 1 mM ATP, 0.2 mM DTT and 10 μM Peptide Substrate. The Master Mix and the assay plate was incubated to reaction temperature before the measurement (30° C.). The reaction was started with addition of (iii) 2 μl 4 μg/ml SYK kinase (Invitrogen, Carlsbad). During measurement fluorescence intensitiy readings were collected using a TECAN M1000 at a wavelength of λex 360/λem 485 nm every 30 s for 30 minutes. The reaction velocity was plotted versus the inhibitor concentration to determine the IC50 using XLFit 5.0 (IDBS, Guildford) to fit to a sigmoidal dose response curve.

pIC50	SMILES
6.00 to 7.00	CC(C)c1nc(Nc2cnn(C3CCOCC3)c2)c2[nH]ncc2n1 [Example 182, 5-isopropyl-N-(1-(tetrahydro-2H-pyran-4-yl)-1H-pyrazol-4-yl)-1H-pyrazolo[4,3-d]pyrimidin-7-amine]
> 8.00	CC(C)n1cc(Nc2nc(C3CC3)nc3cn[nH]c23)cn1 [Example 229, 5-cyclopropyl-N-(1-isopropyl-1H-pyrazol-4-yl)-1H-pyrazolo[4,3-d]pyrimidin-7-amine]
7.00 to 8.00	CN1CCC(n2cc(Nc3nc(-c4cccc(NS(C)(=O)=O)c4)nc4cn[nH]c34)cn2)CC1 [Example 264, N-(3-(7-((1-(1-methylpiperidin-4-yl)-1H-pyrazol-4-yl)amino)-1H-pyrazolo[4,3-d]pyrimidin-5-yl)phenyl)methanesulfonamide]
6.00 to 7.00	CC(=O)N1CCN(c2ccc(Nc3nc(C4CC4)nc4cn[nH]c34)cc2)CC1 [Example 33, 1-(4-(4-((5-cyclopropyl-1H-pyrazolo[4,3-d]pyrimidin-7-yl)amino)phenyl)piperazin-1-yl)ethan-1-one]
6.00 to 7.00	COc1cc(Nc2nc(C3C4CCCCC43)nc3cn[nH]c23)ccc1N1CCOCC1 (centres unmarked) [Example 475, 5-(bicyclo[4.1.0]heptan-7-yl)-N-(3-methoxy-4-morpholinophenyl)-1H-pyrazolo[4,3-d]pyrimidin-7-amine]
7.00 to 8.00	c1nn(C2CC2)cc1Nc1nc(C2CC2)nc2cn[nH]c12 [Example 282, 5-cyclopropyl-N-(1-cyclopropyl-1H-pyrazol-4-yl)-1H-pyrazolo[4,3-d]pyrimidin-7-amine]
6.00 to 7.00	CS(=O)(=O)Nc1cccc(-c2nc(Nc3cnn(C4CCOCC4)c3)c3[nH]ncc3n2)c1 [Example 263, N-(3-(7-((1-(tetrahydro-2H-pyran-4-yl)-1H-pyrazol-4-yl)amino)-1H-pyrazolo[4,3-d]pyrimidin-5-yl)phenyl)methanesulfonamide]
7.00 to 8.00	c1coc(-c2nc(Nc3cnn(C4CC4)c3)c3[nH]ncc3n2)c1 [Example 278, N-(1-cyclopropyl-1H-pyrazol-4-yl)-5-(furan-2-yl)-1H-pyrazolo[4,3-d]pyrimidin-7-amine]
7.00 to 8.00	O=C1CCCc2ccc(Nc3nc(-c4ccoc4)nc4cn[nH]c34)cc2N1 [Example 107, 8-((5-(furan-3-yl)-1H-pyrazolo[4,3-d]pyrimidin-7-yl)amino)-4,5-dihydro-1H-benzo[b]azepin-2(3H)-one]
7.00 to 8.00	c1cc(N2CCOCC2)ccc1Nc1nc(-c2ccc3[nH]ncc3c2)nc2cn[nH]c12 [Example 179, 5-(1H-indazol-5-yl)-N-(4-morpholinophenyl)-1H-pyrazolo[4,3-d]pyrimidin-7-amine]
6.00 to 7.00	CN1CCC(n2cc(Nc3nc(-c4cocn4)nc4cn[nH]c34)cn2)CC1 [Example 129, N-(1-(1-methylpiperidin-4-yl)-1H-pyrazol-4-yl)-5-(oxazol-4-yl)-1H-pyrazolo[4,3-d]pyrimidin-7-amine]
> 8.00	O=C1CCc2ccc(Nc3nc(C4CC4)nc4cn[nH]c34)cc2N1 [Example 22, 7-((5-cyclopropyl-1H-pyrazolo[4,3-d]pyrimidin-7-yl)amino)-3,4-dihydroquinolin-2(1H)-one]
7.00 to 8.00	CN1CCC(n2cc(Nc3nc(-c4nccs4)nc4cn[nH]c34)cn2)CC1 [Example 535, N-(1-(1-methylpiperidin-4-yl)-1H-pyrazol-4-yl)-5-(thiazol-2-yl)-1H-pyrazolo[4,3-d]pyrimidin-7-amine]
7.00 to 8.00	CC(C)(C)N1CCN(c2ccc(Nc3nc(-c4cocn4)nc4cn[nH]c34)cc2)CC1 [Example 49, N-(4-(4-(tert-butyl)piperazin-1-yl)phenyl)-5-(oxazol-4-yl)-1H-pyrazolo[4,3-d]pyrimidin-7-amine]
7.00 to 8.00	COc1ccc(Nc2nc(-c3ccco3)nc3cn[nH]c23)cc1OC [Example 87, N-(3,4-dimethoxyphenyl)-5-(furan-2-yl)-1H-pyrazolo[4,3-d]pyrimidin-7-amine]
6.00 to 7.00	CC(=O)N1CCN(c2ccc(Nc3nc(C(C)C)nc4cn[nH]c34)cc2)CC1 [Example 180, 1-(4-(4-((5-isopropyl-1H-pyrazolo[4,3-d]pyrimidin-7-yl)amino)phenyl)piperazin-1-yl)ethan-1-one]
7.00 to 8.00	COCCCn1cc(Nc2nc(C3CCC3)nc3cn[nH]c23)cn1 [Example 224, 5-cyclobutyl-N-(1-(3-methoxypropyl)-1H-pyrazol-4-yl)-1H-pyrazolo[4,3-d]pyrimidin-7-amine]
6.00 to 7.00	Cc1nn(C2CCOCC2)cc1Nc1nc(-c2ccoc2)nc2cn[nH]c12 [Example 294, 5-(furan-3-yl)-N-(3-methyl-1-(tetrahydro-2H-pyran-4-yl)-1H-pyrazol-4-yl)-1H-pyrazolo[4,3-d]pyrimidin-7-amine]
7.00 to 8.00	CC(C)(C)n1cc(Nc2nc(C3CCC3)nc3cn[nH]c23)cn1 [Example 222, N-(1-(tert-butyl)-1H-pyrazol-4-yl)-5-cyclobutyl-1H-pyrazolo[4,3-d]pyrimidin-7-amine]
> 8.00	CN1CCC(n2cc(Nc3nc(C4CCC4)nc4cn[nH]c34)cn2)CC1 [Example 206, 5-cyclobutyl-N-(1-(1-methylpiperidin-4-yl)-1H-pyrazol-4-yl)-1H-pyrazolo[4,3-d]pyrimidin-7-amine]

Further lines, the molecule ahead of its results:

SMILES	pIC50
c1ccc(-n2cc(Nc3nc(-c4ccc5cn[nH]c5c4)nc4cn[nH]c34)cn2)nc1 [Example 472, 5-(1H-indazol-6-yl)-N-(1-(pyridin-2-yl)-1H-pyrazol-4-yl)-1H-pyrazolo[4,3-d]pyrimidin-7-amine]	6.00 to 7.00
CC(C)C(C)n1cc(Nc2nc(-c3ccc4cn[nH]c4c3)nc3cn[nH]c23)cn1 (centres unmarked) [Example 469, 5-(1H-indazol-6-yl)-N-(1-(3-methylbutan-2-yl)-1H-pyrazol-4-yl)-1H-pyrazolo[4,3-d]pyrimidin-7-amine]	7.00 to 8.00
Cc1c(Nc2nc(C3CC3)nc3cn[nH]c23)cnn1C(C)C [Example 287, 5-cyclopropyl-N-(1-isopropyl-5-methyl-1H-pyrazol-4-yl)-1H-pyrazolo[4,3-d]pyrimidin-7-amine]	6.00 to 7.00
COCCn1cc(Nc2nc(-c3ncco3)nc3cn[nH]c23)cn1 [Example 256, N-(1-(2-methoxyethyl)-1H-pyrazol-4-yl)-5-(oxazol-2-yl)-1H-pyrazolo[4,3-d]pyrimidin-7-amine]	6.00 to 7.00
CC(C)(C)n1cc(Nc2nc(-c3ccoc3)nc3cn[nH]c23)cn1 [Example 218, N-(1-(tert-butyl)-1H-pyrazol-4-yl)-5-(furan-3-yl)-1H-pyrazolo[4,3-d]pyrimidin-7-amine]	7.00 to 8.00
O=C1COc2ccc(Nc3nc(-c4ccc5cn[nH]c5c4)nc4cn[nH]c34)cc2N1 [Example 519, 6-((5-(1H-indazol-6-yl)-1H-pyrazolo[4,3-d]pyrimidin-7-yl)amino)-2H-benzo[b][1,4]oxazin-3(4H)-one]	> 8.00
c1ccc2sc(-c3nc(Nc4cnn(C5CC5)c4)c4[nH]ncc4n3)nc2c1 [Example 410, 5-(benzo[d]thiazol-2-yl)-N-(1-cyclopropyl-1H-pyrazol-4-yl)-1H-pyrazolo[4,3-d]pyrimidin-7-amine]	> 8.00
CC(C)(C)N1CCN(c2ccc(Nc3nc(-c4c(F)cccc4F)nc4cn[nH]c34)cc2)CC1 [Example 10, N-(4-(4-(tert-butyl)piperazin-1-yl)phenyl)-5-(2,6-difluorophenyl)-1H-pyrazolo[4,3-d]pyrimidin-7-amine]	7.00 to 8.00
CN1CCN(C2CCN(c3ccc(Nc4nc(-c5ccccc5NS(C)(=O)=O)nc5cn[nH]c45)cc3)CC2)CC1 [Example 29, N-(2-(7-((4-(4-(4-methylpiperazin-1-yl)piperidin-1-yl)phenyl)amino)-1H-pyrazolo[4,3-d]pyrimidin-5-yl)phenyl)methanesulfonamide]	7.00 to 8.00
Fc1cccc(F)c1-c1nc(Nc2ccc3c(c2)NCCO3)c2[nH]ncc2n1 [Example 537, N-(5-(2,6-difluorophenyl)-1H-pyrazolo[4,3-d]pyrimidin-7-yl)-3,4-dihydro-2H-benzo[b][1,4]oxazin-6-amine]	7.00 to 8.00
c1ccc(Sc2ccc(Nc3nc(-c4ccc5cn[nH]c5c4)nc4cn[nH]c34)cc2)cc1 [Example 515, 5-(1H-indazol-6-yl)-N-(4-(phenylthio)phenyl)-1H-pyrazolo[4,3-d]pyrimidin-7-amine]	6.00 to 7.00
OCCn1cc(Nc2nc(-c3ccoc3)nc3cn[nH]c23)cn1 [Example 242, 2-(4-((5-(furan-3-yl)-1H-pyrazolo[4,3-d]pyrimidin-7-yl)amino)-1H-pyrazol-1-yl)ethan-1-ol]	> 8.00
c1ccc(-n2cc(Nc3nc(-c4ccoc4)nc4cn[nH]c34)cn2)nc1 [Example 484, 5-(furan-3-yl)-N-(1-(pyridin-2-yl)-1H-pyrazol-4-yl)-1H-pyrazolo[4,3-d]pyrimidin-7-amine]	6.00 to 7.00
CC(C)C(C)n1cc(Nc2nc(C3CC3)nc3cn[nH]c23)cn1 (centres unmarked) [Example 498, 5-cyclopropyl-N-(1-(3-methylbutan-2-yl)-1H-pyrazol-4-yl)-1H-pyrazolo[4,3-d]pyrimidin-7-amine]	7.00 to 8.00
N#CC1(n2cc(Nc3nc(-c4ccco4)nc4cn[nH]c34)cn2)CCCCC1 [Example 213, 1-(4-((5-(furan-2-yl)-1H-pyrazolo[4,3-d]pyrimidin-7-yl)amino)-1H-pyrazol-1-yl)cyclohexanecarbonitrile]	6.00 to 7.00
